According to PubChem BioAssay (NCI):
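A five-concentration, 48-hour dose response in 96-well plates underlies each endpoint, interpolated linearly between surrounding concentrations. TGI marks complete inhibition of growth.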

Experiments:
Assay in all cases: NCI-60 cell line screen, 48 h
OVCAR-4 ovarian = system: OVCAR-4 ovarian
NCI-H522 lung = system: NCI-H522 lung
MDA-MB-231 breast = system: MDA-MB-231 breast
LOX IMVI melanoma = system: LOX IMVI melanoma
NCI-H23 lung = system: NCI-H23 lung
UACC-62 melanoma = system: UACC-62 melanoma
HOP-62 NSCLC = system: HOP-62 NSCLC
SK-MEL-2 melanoma = system: SK-MEL-2 melanoma
SNB-75 CNS = system: SNB-75 CNS
M14 melanoma = system: M14 melanoma

CC(CNC(N)=O)NC(N)=O (stereo not given)
TGI (OVCAR-4 ovarian): > 100 µM | TGI (NCI-H522 lung): > 100 µM | TGI (MDA-MB-231 breast): > 100 µM | TGI (LOX IMVI melanoma): > 100 µM | TGI (NCI-H23 lung): > 100 µM | TGI (UACC-62 melanoma): > 100 µM | TGI (HOP-62 NSCLC): > 100 µM | TGI (SK-MEL-2 melanoma): > 100 µM | TGI (SNB-75 CNS): > 100 µM | TGI (M14 melanoma): > 100 µM

NCCSCCC(=O)O
TGI (OVCAR-4 ovarian): > 100 µM | TGI (NCI-H522 lung): > 100 µM | TGI (MDA-MB-231 breast): > 100 µM | TGI (LOX IMVI melanoma): > 93.7 µM | TGI (NCI-H23 lung): > 62.7 µM | TGI (UACC-62 melanoma): > 70.9 µM | TGI (HOP-62 NSCLC): > 100 µM | TGI (SK-MEL-2 melanoma): > 100 µM | TGI (SNB-75 CNS): > 92.6 µM | TGI (M14 melanoma): > 100 µM

NC(=S)NC/C=C/Cl
TGI (OVCAR-4 ovarian): > 100 µM | TGI (NCI-H522 lung): > 100 µM | TGI (MDA-MB-231 breast): > 100 µM | TGI (LOX IMVI melanoma): > 100 µM | TGI (NCI-H23 lung): > 100 µM | TGI (UACC-62 melanoma): > 100 µM | TGI (HOP-62 NSCLC): > 100 µM | TGI (SK-MEL-2 melanoma): > 100 µM | TGI (SNB-75 CNS): > 100 µM | TGI (M14 melanoma): > 100 µM

COC1=CC(=O)N(C)C(O)C1(C#N)OC1OC(CO)C(O)C(O)C1O (stereo not given)
TGI (OVCAR-4 ovarian): > 100 µM | TGI (NCI-H522 lung): > 100 µM | TGI (MDA-MB-231 breast): > 100 µM | TGI (LOX IMVI melanoma): > 100 µM | TGI (NCI-H23 lung): > 100 µM | TGI (UACC-62 melanoma): > 100 µM | TGI (HOP-62 NSCLC): > 100 µM | TGI (SK-MEL-2 melanoma): > 100 µM | TGI (SNB-75 CNS): > 100 µM | TGI (M14 melanoma): > 100 µM

O=C(O)c1ccccc1C1c2ccccc2Oc2ccccc21
TGI (OVCAR-4 ovarian): > 100 µM | TGI (NCI-H522 lung): > 100 µM | TGI (MDA-MB-231 breast): > 100 µM | TGI (LOX IMVI melanoma): > 100 µM | TGI (NCI-H23 lung): > 100 µM | TGI (UACC-62 melanoma): > 100 µM | TGI (HOP-62 NSCLC): > 100 µM | TGI (SK-MEL-2 melanoma): 86.5 µM | TGI (SNB-75 CNS): 85.8 µM | TGI (M14 melanoma): > 100 µM

COc1cccc(C2c3cc4c(cc3OC(Nc3ccccc3)C2C)OCO4)c1O (stereo not given)
TGI (OVCAR-4 ovarian): > 100 µM | TGI (NCI-H522 lung): 20.6 µM | TGI (MDA-MB-231 breast): 37 µM | TGI (LOX IMVI melanoma): 18.9 µM | TGI (NCI-H23 lung): 45.2 µM | TGI (UACC-62 melanoma): 29 µM | TGI (HOP-62 NSCLC): 36.9 µM | TGI (SK-MEL-2 melanoma): 51.9 µM | TGI (SNB-75 CNS): 26.8 µM | TGI (M14 melanoma): 15.1 µM

COc1cc(N(CCC#N)CCC#N)ccc1/C=N\NC(=O)c1ccc(C)cc1
TGI (OVCAR-4 ovarian): > 100 µM | TGI (NCI-H522 lung): > 100 µM | TGI (MDA-MB-231 breast): 36.7 µM | TGI (LOX IMVI melanoma): > 100 µM | TGI (NCI-H23 lung): > 100 µM | TGI (UACC-62 melanoma): > 100 µM | TGI (HOP-62 NSCLC): > 100 µM | TGI (SK-MEL-2 melanoma): 32.6 µM | TGI (SNB-75 CNS): > 100 µM | TGI (M14 melanoma): > 100 µM

Cc1ccc(S(=O)(=O)NC(=O)C2=C3SCCN3C(=O)N(S(=O)(=O)c3ccc(C)cc3)C2c2ccccc2)cc1 (stereo not given)
TGI (OVCAR-4 ovarian): > 100 µM | TGI (NCI-H522 lung): 46.7 µM | TGI (MDA-MB-231 breast): > 100 µM | TGI (LOX IMVI melanoma): > 100 µM | TGI (NCI-H23 lung): > 100 µM | TGI (UACC-62 melanoma): > 100 µM | TGI (HOP-62 NSCLC): > 100 µM | TGI (SK-MEL-2 melanoma): > 100 µM | TGI (SNB-75 CNS): > 100 µM | TGI (M14 melanoma): > 100 µM

O=C1NC(Cc2ccc(O)cc2)C(=O)NC1Cc1ccc(O)cc1 (stereo not given)
TGI (OVCAR-4 ovarian): > 100 µM | TGI (NCI-H522 lung): > 100 µM | TGI (MDA-MB-231 breast): > 100 µM | TGI (LOX IMVI melanoma): > 100 µM | TGI (NCI-H23 lung): > 100 µM | TGI (UACC-62 melanoma): > 100 µM | TGI (HOP-62 NSCLC): > 100 µM | TGI (SK-MEL-2 melanoma): > 100 µM | TGI (SNB-75 CNS): > 100 µM | TGI (M14 melanoma): > 100 µM

N#Cc1c(N)nc2c3c1NC(=O)C(C(N)=O)C3c1ccccc1O2 (stereo not given)
TGI (OVCAR-4 ovarian): > 100 µM | TGI (NCI-H522 lung): 70.6 µM | TGI (MDA-MB-231 breast): > 100 µM | TGI (LOX IMVI melanoma): > 100 µM | TGI (NCI-H23 lung): > 100 µM | TGI (UACC-62 melanoma): > 100 µM | TGI (HOP-62 NSCLC): > 100 µM | TGI (SK-MEL-2 melanoma): > 100 µM | TGI (SNB-75 CNS): > 100 µM | TGI (M14 melanoma): > 100 µM

CC1CCC2(OC1)OC1C(O)C3C4CCC5CC(OC6OC(CO)C(OC7OC(CO)C(O)C(OC8OCC(O)C(O)C8O)C7OC7OC(CO)C(O)C(OC8OC(CO)C(O)C(O)C8O)C7O)C(O)C6O)C(O)CC5(C)C4CCC3(C)C1C2C (stereo not given)
TGI (OVCAR-4 ovarian): 4.04 µM | TGI (NCI-H522 lung): 3.79 µM | TGI (MDA-MB-231 breast): 4.3 µM | TGI (LOX IMVI melanoma): 12.1 µM | TGI (NCI-H23 lung): 4.41 µM | TGI (UACC-62 melanoma): 14.1 µM | TGI (HOP-62 NSCLC): 3.92 µM | TGI (SK-MEL-2 melanoma): 17.8 µM | TGI (SNB-75 CNS): 7.76 µM | TGI (M14 melanoma): 24.9 µM

CN(C)CC1CCC(CN(C)C)C(=O)C1=O (stereo not given)
TGI (OVCAR-4 ovarian): 18.3 µM | TGI (NCI-H522 lung): 1.38 µM | TGI (MDA-MB-231 breast): 19.5 µM | TGI (LOX IMVI melanoma): 22.2 µM | TGI (NCI-H23 lung): 22.1 µM | TGI (UACC-62 melanoma): 31.3 µM | TGI (HOP-62 NSCLC): 35.3 µM | TGI (SK-MEL-2 melanoma): 34.6 µM | TGI (SNB-75 CNS): 30.6 µM | TGI (M14 melanoma): 12.5 µM

CC(=O)OCC1OC(n2c(C)c(C)c(C)c(C#N)c2=S)C(OC(C)=O)C(OC(C)=O)C1OC(C)=O (stereo not given)
TGI (OVCAR-4 ovarian): > 100 µM | TGI (NCI-H522 lung): 69.1 µM | TGI (MDA-MB-231 breast): > 100 µM | TGI (LOX IMVI melanoma): > 100 µM | TGI (NCI-H23 lung): > 100 µM | TGI (UACC-62 melanoma): > 100 µM | TGI (HOP-62 NSCLC): 49.8 µM | TGI (SK-MEL-2 melanoma): 78.2 µM | TGI (SNB-75 CNS): > 100 µM | TGI (M14 melanoma): > 100 µM

CC(C)Oc1cccc(N2C(Nc3ccccc3)=Nc3ccncc3S2(=O)=O)c1
TGI (OVCAR-4 ovarian): > 100 µM | TGI (NCI-H522 lung): > 100 µM | TGI (MDA-MB-231 breast): > 100 µM | TGI (LOX IMVI melanoma): 38.5 µM | TGI (NCI-H23 lung): > 100 µM | TGI (UACC-62 melanoma): > 100 µM | TGI (HOP-62 NSCLC): > 100 µM | TGI (SK-MEL-2 melanoma): > 100 µM | TGI (SNB-75 CNS): > 100 µM | TGI (M14 melanoma): > 100 µM

Cc1ncc(COP(=O)(O)O)c(/C=C2\SC(=S)NC2=O)c1O
TGI (OVCAR-4 ovarian): > 100 µM | TGI (NCI-H522 lung): > 100 µM | TGI (MDA-MB-231 breast): > 100 µM | TGI (LOX IMVI melanoma): > 100 µM | TGI (NCI-H23 lung): > 100 µM | TGI (UACC-62 melanoma): > 100 µM | TGI (HOP-62 NSCLC): > 100 µM | TGI (SK-MEL-2 melanoma): > 100 µM | TGI (SNB-75 CNS): > 100 µM | TGI (M14 melanoma): > 100 µM
